For assay [1], the target named is muscarinic acetylcholine receptors. The assay can be described thus: inhibition of specific binding of 3H-Oxotremorine-M (3H-Oxo), rat cortex homogenate. Also noted: species or system male Wistar rats. The note with it: 1.0 nM 3H-Oxotremorine, pH 7.4, 30 min, 25° C. An excerpt: The pharmacological properties of the compounds of the invention can be illustrated by determining their capability to inhibit the specific binding of ^3 H-Oxotremorine-M (^3 H-Oxo). Birdsdall N. J. M., Hulme E. C., and Burgen A. S. V. (1980). "The Character of Muscarinic Receptors in Different Regions of the Rat Brain". Proc. Roy. Soc. London (Series B) 207,1.
The inhibitory effects of compounds on ^3 H-Oxo binding reflects the affinity for muscarinic acetylcholine receptors.
All preparations are performed at 0-4° C. unless otherwise indicated. Fresh cortex (0.1-1 g) from male Wistar rats (150-250 g) is homogenized for 5-10 s in 10 ml 20 mM Hepes pH: 7.4, with an Ultra-Turrax homogenizer. The homogenizer is rinsed with 10 ml of buffer and the combined suspension centrifuged for 15 min. at 40,000×g. The pellet is washed three times with buffer. In each step the pellet is homogenized as before in 2×10 ml of buffer and centrifuged for 10 min. at 40,000×g.
The final pellet is homogenized in 20 mM Hepes pH: 7.4 (100 ml per g of original tissue) and used for binding assay. Aliquots of 0.5 ml is added 25 ul of test solution and 25 ul of ^3 H-Oxotremorine (1.0 nM, final concentration) mixed and incubated for 30 min. at 25° C. Non-specific binding is determined in triplicate using arecoline (1 ug/ml, final concentration) as the test substance. After incubation samples are added 5 ml of ice-cold buffer and poured directly onto Whatman GF/C glass fiber filters under suction and immediately washed 2 times with 5 ml of ice-cold buffer. The amount of radioactivity on the filters are determined by conventional liquid scintillation counting. Specific binding is total binding minus non specific binding.
Test substances are dissolved in 10 ml water (if necessary heated on a steam-bath for less than 5 min.) at a concentration of 2.2 mg/ml. 25-75% inhibition of specific binding must be obtained before calculation of IC50.
The test value will be given as IC50 (the concentration (nM) of the test substance which inhibits the specific binding of ^3 H-Oxo by 50%).
(§1) IC50 =(applied test substance concentration) [formula] where Co is specific binding in control assays and Cx is the specific binding in the test assay. (The calculations assume normal mass-action kinetics).

The target of assay [2] is T1, subtype of muscarinic receptors (M1-site) (Rattus norvegicus, UniProt P08482).
T1 construct: from tissue; host or cells: rat cerebral cortex membranes (male Wistar rats)
T1 sequence (P08482 1-460): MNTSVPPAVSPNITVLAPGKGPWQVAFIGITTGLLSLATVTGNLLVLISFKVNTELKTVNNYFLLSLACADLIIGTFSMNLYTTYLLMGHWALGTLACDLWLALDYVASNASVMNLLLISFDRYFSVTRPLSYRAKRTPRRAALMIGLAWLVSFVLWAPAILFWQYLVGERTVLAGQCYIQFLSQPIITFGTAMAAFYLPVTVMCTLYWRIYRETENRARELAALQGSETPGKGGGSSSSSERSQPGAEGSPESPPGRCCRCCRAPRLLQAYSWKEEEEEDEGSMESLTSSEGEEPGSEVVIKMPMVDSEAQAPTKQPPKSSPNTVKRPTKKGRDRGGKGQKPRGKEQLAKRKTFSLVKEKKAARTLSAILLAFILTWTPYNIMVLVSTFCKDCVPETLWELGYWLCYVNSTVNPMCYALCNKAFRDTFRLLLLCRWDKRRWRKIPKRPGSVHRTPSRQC
The assay can be described thus: inhibition of 3H-PRZ (pirenzepine, [N-methyl-3H]) binding to rat cerebral cortex membranes. Also noted: species or system male Wistar rats. The note with it: 1.0 nM 3H-Pirenzepine, pH 7.4, 60 min, 20° C, read-out: IC50, 3H-Pz.
From the text: Furthermore the pharmacological properties of the compounds of the invention can also be illustrated by determining their capability to inhibit ^3 H-PRZ (pirenzepine, [N-methyl-^3 H]) binding to rat cerebral cortex membranes.
Pirenzepine binds selectively to subtype of muscarinic receptors. Historically the type is named the M1 -site, whereas pirenzepine sensitive site would be more appropriate. Although selective for M1 -sites pirenzepine also interact with M2 -sites.
All preparations are performed at 0-4° C. unless otherwise indicated. Fresh cortex (0.1-1 g) from male Wistar rats (150-200 g) is homogenized for 5-10 s. in 10 ml 20 mM Hepes pH: 7.4, with an Ultra-Turraxhomogenizer. The homogenizer is rinzed with 2×10 ml of buffer and the combined suspension centrifuged for 15 min at 40,000 xg. The pellet is washed three times with buffer. In each step the pellet is homogenized as before in 3×10 ml of buffer and centrifuged for 10 min at 40,000 xg.
The final pellet is homogenized in 20 mM Hepes pH: 7.4 (100 ml per g of original tissue) and used for binding assay. Aliquots of 0.5 ml is added 20 μl of test solution and 25 μl of ^3 H-Pirenzepine·(1.0 nM, final conc.), mixed and incubated for 60 min at 20° C. Non-specific binding is determined in triplicate using atropine (1 μg/ml, final conc.) as the test substance. After incubation samples are added 5 ml of ice-cold buffer and poured directly onto Whatman GF/C glass fiber filters inder suction and immediately washed 2 times with 5 ml of ice-cold buffer. The amount of radioactivity on the filters are determined by conventional liquid scintillation counting. Specific binding is total binding minus non-specific binding.
Test substances are dissolved in 10 ml water, at a concentration of 0.22 mg/ml. 25-75% inhibition of specific binding must be obtained before calculation of IC50.
The test value will be given as IC50 (the concentration, nM) of the test substance which inhibits the specific binding of ^3 H-PRZ by 50%.
as §1

For the compound `CCCCSc1nsnc1[C@H]1C[N@@+]2(C)CCC[C@@H]1C2` (relative stereo) [Compound 5, Endo 6-(3-Butylthio-1,2,5-thiadiazol-4-yl)-1-methyl-1-azabicyclo[3.2.1]octane iodide], the IC50 – broadly, the midpoint of a concentration-inhibition curve – in assay [1] was 3.3 nM; in assay [2] it was 8.8 nM. As to `CCCCCSc1nsnc1[C@H]1C[N@@+]2(C)CCC[C@@H]1C2` (relative stereo) [Compound 6, Endo 6-(3-Pentylthio-1,2,5-thiadiazol-4-yl)-1-methyl-1-azabicyclo[3.2.1]octane iodide], the values for the half-maximal inhibitory concentration (IC50) in assay [1] and in assay [2] were 4.8 nM and 2.3 nM, respectively. Turning to `CCCCCSc1nsnc1[C@@H]1C[N@@+]2(C)CCC[C@@H]1C2` (relative stereo) [Compound 7, Exo 6-(3-Pentylthio-1,2,5-thiadiazol-4-yl)-1-methyl-1-azabicyclo[3.2.1]octane iodide], the IC50 in assay [1] is 4.9 nM; in assay [2], 135 nM. In assay [1], `C[N+]12CCCC(C1)C(c1nsnc1OCC#Cc1ccsc1)C2` (single isomer, unassigned) [Compound 11, Exo(+) 6-(3-(3-(3-Thienyl)-2-propyn-1-yloxy)-1,2,5-thiadiazol-4-yl)-1-azabicyclo[3.2.1]-octane iodide] gave an IC50 of 35 nM.

Regarding `C[N+]12CCCC(C1)C(c1nsnc1OCC#Cc1cccs1)C2` (single isomer, unassigned) [Compound 12, Exo(+) 6-(3-(3-(2-Thienyl)-2-propyn-1-yloxy)-1,2,5-thiadiazol-4-yl)-1-azabicyclo[3.2.1]-octane iodide], the IC50 in assay [1] was found to be 63 nM.

Turning to `C[N+]12CCCC(C1)C(c1nsnc1SCC#Cc1ccccc1)C2` (single isomer, unassigned) [Compound 13, Exo(+) 6-(3-(3-(3-Phenyl)-2-propyn-1-ylthio)-1,2,5-thiadiazol-4-yl)-1-azabicyclo[3.2.1]-octane iodide], the half-inhibitory concentration (IC50) in assay [1] worked out at 13 nM. In the case of `CCCCCCSc1nsnc1C1=CCC[N+](C)(C)C1` [Compound 1, 3-(3-Hexylthio-1,2,5-thiadiazol-4-yl)-1,2,5,6-tetrahydro-1,1-dimethylpyridinium iodide], the IC50 in assay [1] was 3.4 nM; in assay [2] it was 6 nM. For `CCCCCCOc1nsnc1C1=CCC[N+](C)(C)C1` [Compound 2, 3-(3-Hexyloxy-1,2,5-thiadiazol-4-yl)-1,2,5,6-tetrahydro-1,1-dimethylpyridinium iodide], the IC50 in assay [1] was 3.3 nM; in assay [2] it was 9 nM. As to `CCOc1nsnc1C1=CCC[N+](C)(C)C1` [Compound 3, 3-(3-Ethoxy-1,2,5-thiadiazol-4-yl)-1,2,5,6-tetrahydro-1,1-dimethylpyridinium iodide], the IC50 came out at 0.59 nM in assay [1] and 4.5 nM in assay [2]. Consider `CCCCSc1nsnc1C1C[N+]2(C)CCC1CC2` (centres unmarked) [Compound 4, 3-(3-Butylthio-1,2,5-thiadiazol-4-yl)-1-methyl-1-azabicyclo[2.2.2]octane iodide], for which the results for the IC50 in assay [1] and in assay [2] were 1.5 nM and 4.9 nM, respectively. In the same order, the values of `CCSc1nsnc1C1=CCC[N+](C)(CC)C1` (centres unmarked) [Compound 8, 3-(3-Ethylthio-1,2,5-thiadiazol-4-yl)-1,2,5,6-tetrahydro-1-ethyl-1-methylpyridinium iodide] are 3.5 nM and 28 nM.

`CCSc1nsnc1C1=CCC[N+](C)(C)C1` [Compound 9, 3-(3-Ethylthio-1,2,5-thiadiazol-4-yl)-1,2,5,6-tetrahydro-1,1-dimethylpyridinium iodide]: the IC50 came to 1.6 nM in assay [1] and 26 nM in assay [2].

In the case of `CCOc1nsnc1C1=CCC[N+](C)(CC)C1` (centres unmarked) [Compound 10, 3-(3-Ethoxy-1,2,5-thiadiazol-4-yl)-1,2,5,6-tetrahydro-1-ethyl-1-methyl-pyridinium iodide], the IC50 in assay [1] turned out to be 15.5 nM; in assay [2], 56 nM.

The values are drawn from patent US6083957A, “Heterocyclic compounds and their preparation and use” (Novo Nordisk A/S, priority 1996, dated 2000).
